Each structure is given as a SMILES string.

43 compounds from BindingDB's records for doi:10.1016/j.bmc.2015.01.026 (Virginia Tech, 2015) can be followed below.

The target of this assay is Acetylcholinesterase (Homo sapiens, UniProt P22303). The assay can be described thus: Inhibition of recombinant human AChE. The following applies: read-out: kon (M-1-s-1).
Acetylcholinesterase, sequence (P22303 whole entry): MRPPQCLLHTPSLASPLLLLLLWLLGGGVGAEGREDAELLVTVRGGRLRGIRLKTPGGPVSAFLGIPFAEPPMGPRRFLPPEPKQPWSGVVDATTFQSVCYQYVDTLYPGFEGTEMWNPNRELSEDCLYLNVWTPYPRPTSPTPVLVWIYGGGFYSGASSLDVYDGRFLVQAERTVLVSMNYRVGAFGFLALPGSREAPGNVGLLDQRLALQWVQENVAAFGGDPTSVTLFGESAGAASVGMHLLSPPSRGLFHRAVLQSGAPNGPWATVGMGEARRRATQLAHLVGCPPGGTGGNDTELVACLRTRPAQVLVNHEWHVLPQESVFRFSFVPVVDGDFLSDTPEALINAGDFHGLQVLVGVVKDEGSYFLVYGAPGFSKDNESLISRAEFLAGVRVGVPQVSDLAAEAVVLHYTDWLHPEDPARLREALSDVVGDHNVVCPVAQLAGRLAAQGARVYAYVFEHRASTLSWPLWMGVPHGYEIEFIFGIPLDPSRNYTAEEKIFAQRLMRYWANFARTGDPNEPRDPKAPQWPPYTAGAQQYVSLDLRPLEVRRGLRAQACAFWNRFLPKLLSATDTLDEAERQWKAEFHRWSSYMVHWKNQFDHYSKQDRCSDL
In general, kon refers to a measure of how fast the partners come together. In the case of `CNC(=O)Oc1cccc(C(C)(C)C)c1`, the association rate constant (kon) is 2100 M⁻¹ s⁻¹.
For `CCC(C)n1cc(OC(=O)NC)cn1` (stereo not drawn), the kon was determined as 13400 M⁻¹ s⁻¹.
The same measure for `Cc1cc(=O)n(C(=O)N(C)C)o1`: 20.3 M⁻¹ s⁻¹; for `CN(C)C(=O)n1oc(C2CC2)cc1=O`: 1720 M⁻¹ s⁻¹; for `CC(C)c1cc(=O)n(C(=O)N(C)C)o1`: 9350 M⁻¹ s⁻¹.
Consider `CN(C)C(=O)n1oc(C2CCC2)cc1=O`, for which the kon came to 3880 M⁻¹ s⁻¹.
In the case of `CCC(C)c1cc(=O)n(C(=O)N(C)C)o1` (stereo not drawn), the on-rate constant (kon) amounted to 36200 M⁻¹ s⁻¹.
As for `CN(C)C(=O)n1oc(C2CCCC2)cc1=O`, the kon turned out to be 11300 M⁻¹ s⁻¹.
For `CCCC(C)c1cc(=O)n(C(=O)N(C)C)o1` (stereo not drawn), the kon was determined as 51800 M⁻¹ s⁻¹.
For `CCC(CC)c1cc(=O)n(C(=O)N(C)C)o1`, the on-rate constant (kon) was 33200 M⁻¹ s⁻¹.
On to `CC(C)Cc1cc(=O)n(C(=O)N(C)C)o1`, for which the kon worked out at 515 M⁻¹ s⁻¹.
Regarding `CCC(C)Cc1cc(=O)n(C(=O)N(C)C)o1` (stereo not drawn), the kon is 1870 M⁻¹ s⁻¹.
In the case of `CC(C)CCc1cc(=O)n(C(=O)N(C)C)o1`, the kon stood at 1350 M⁻¹ s⁻¹.
Take `CN(C)C(=O)n1oc(CCC2CC2)cc1=O`: the kon was determined as 2400 M⁻¹ s⁻¹.
On to `CN(C)C(=O)n1oc(CCC2CCC2)cc1=O`, for which the association rate constant (kon) was determined as 1240 M⁻¹ s⁻¹.
Regarding `CN(C)C(=O)n1oc(CCC2CCCC2)cc1=O`, the kon stood at 1530 M⁻¹ s⁻¹.
Next, `CCCC(C)c1cc(=O)n(C(=O)N2CCC2)o1` (stereo not drawn): 31000 M⁻¹ s⁻¹; `CCCC(C)c1cc(=O)n(C(=O)N(C)CC)o1` (stereo not drawn): 18000 M⁻¹ s⁻¹.
With `CCCC(C)c1cc(=O)n(C(=O)N(CC)CC)o1` (stereo not drawn), the kon stood at 3000 M⁻¹ s⁻¹.
Next, `CCCC(C)c1cc(=O)n(C(=O)N2CCCC2)o1` (stereo not drawn): 6320 M⁻¹ s⁻¹; `CCCC(C)c1cc(=O)n(C(=O)N2CCOCC2)o1` (stereo not drawn): 433 M⁻¹ s⁻¹.
The same measure for `Cc1cc(OC(=O)N(C)C)no1`: 1.97 M⁻¹ s⁻¹; for `CN(C)C(=O)Oc1cc(C2CC2)on1`: 33.7 M⁻¹ s⁻¹; for `CC(C)c1cc(OC(=O)N(C)C)no1`: 74.3 M⁻¹ s⁻¹.
Turning to `CN(C)C(=O)Oc1cc(C2CCC2)on1`, the kon came to 31 M⁻¹ s⁻¹.
On to `CCC(C)c1cc(OC(=O)N(C)C)no1` (stereo not drawn), for which the kon came out at 1000 M⁻¹ s⁻¹.
With `CN(C)C(=O)Oc1cc(C2CCCC2)on1`, the kon was 77 M⁻¹ s⁻¹.
The same measure for `CCCC(C)c1cc(OC(=O)N(C)C)no1` (stereo not drawn): 848 M⁻¹ s⁻¹.
For `CCC(CC)c1cc(OC(=O)N(C)C)no1`, the kon worked out at 151 M⁻¹ s⁻¹.
Consider `CCCCC(CC)c1cc(OC(=O)N(C)C)no1` (stereo not drawn), for which the kon came to 35.5 M⁻¹ s⁻¹.
The same measure for `CC(C)Cc1cc(OC(=O)N(C)C)no1`: 26.5 M⁻¹ s⁻¹; for `CCC(C)Cc1cc(OC(=O)N(C)C)no1` (stereo not drawn): 28.3 M⁻¹ s⁻¹; for `CN(C)C(=O)Oc1cc(CC(C)(C)C)on1`: 7.33 M⁻¹ s⁻¹.
The same measure for `CC(C)CCc1cc(OC(=O)N(C)C)no1`: 31.8 M⁻¹ s⁻¹.
Next, `CN(C)C(=O)Oc1cc(CCC2CC2)on1`: 138 M⁻¹ s⁻¹.
In the case of `CN(C)C(=O)Oc1cc(CCC2CCC2)on1`, the association rate constant (kon) stood at 121 M⁻¹ s⁻¹.
As for `CN(C)C(=O)Oc1cc(CCC2CCCC2)on1`, the kon came to 218 M⁻¹ s⁻¹.
For `CCCC(C)c1cc(OC(=O)N(C)CC)no1` (stereo not drawn), the kon worked out at 152 M⁻¹ s⁻¹.
With `CCCC(C)c1cc(OC(=O)N2CCCC2)no1` (stereo not drawn), the kon worked out at 27 M⁻¹ s⁻¹.
In the case of `CCCC(C)c1cc(OC(=O)N2CCOCC2)no1` (stereo not drawn), the kon was 44.7 M⁻¹ s⁻¹.
The same measure for `CNC(=O)Oc1cccc2c1OC(C)(C)O2` [CHEBI:34556]: 1850 M⁻¹ s⁻¹.
The same measure for `CNC(=O)Oc1cccc2c1OC(C)(C)C2` [CHEBI:34611]: 7130 M⁻¹ s⁻¹; for `CNC(=O)Oc1ccccc1OC(C)C` [CHEBI:34938]: 283 M⁻¹ s⁻¹.
